# Values of other authors, collected in US20240156726A1, “MULTI-LAYER ORAL THIN FILM” (LTS LOHMANN THERAPIE-SYSTEME AG, priority 2021, published 2024).
# Settings: compared with (R)-ketamine
compound,measurement,value
"CNC1(c2ccccc2Cl)CCCCC1=O (racemic) [(S)-ketamine, (S)-(±)-2-(2-chlorophenyl)-2-(methylamino)cyclohexan-1-one]",analgesic and anaesthetic potency relative to the (R) form,approximately three times higher
